Measurements as given in publication PMC7927014, “Novel Small Molecule Hsp90/Cdc37 Interface Inhibitors Indirectly Target K-Ras-Signaling” (Cancers, 2021).

Assays:
[1] = system: Hsp90/Cdc37; assay: FIMM screening in split Renilla luciferase assay with hypomorphic NRL-Hsp90 construct, 20 μM; format: biochemical; conditions: for Average RLU (FIMM Screening-1): DMSO 50019
Protocol: In the second in silico screening of the FIMM database, we employed the four identified chemical scaffolds (Figure S2B) for the visual inspection of the FIMM compound library. […] All of the purchased compounds were validated in vitro at 20 μM using the split Renilla luciferase assay.
The Hsp90/Cdc37 split Renilla luciferase assay using the full length Hsp90 for the compound screening was described previously. […] After 48 h, the cells were trypsinized and washed with PBS. The harvested cells were lysed in 1 mL of the 1x lysis buffer provided in the Renilla Luciferase Reporter Assay System Kit from Promega (cat. E2820), and were incubated on ice for 10 min. The cell lysates were then cleared by centrifugation at 13,000× g for 1 min. […] After this, the screening/test compounds or DMSO—as indicated—were added to each well. In total, 5 µL NRL-Hsp90- or NRL-N-Hsp90-lysate was added to each well, one row at a time. Subsequently, the plate was incubated for 5 min at room temperature (RT). […] Just before the reading, 20 µL assay buffer containing 2× Renilla luciferase substrate (coelenterazine) was added. For the FIMM screening, sample wells were read on a PHERAstar plate reader (BMG LABTECH) at a gain level of 4000, after 10 s shaking, using a hypomorph of NRL-Hsp90. For the subsequent validations of the compounds, sample wells with the above-described assay constructs were read using a synergy H1 Hybrid Multi-Mode reader (BioTek) in the luminescence detection mode, as described previously in detail.

[2] = target: T1, Hsp90α (N-terminal) (Homo sapiens, UniProt P07900); assay: Hsp90 N-terminal ATP-binding site competition assay (FITC-geldanamycin fluorescence polarization)
T1 construct: purchased BPS Bioscience 50298
Protocol: The reaction was initiated by adding 35 ng/μL purified recombinant Hsp90α, and was incubated at RT with slow shaking for 2 h. All of the reactions were performed in a black, low binding NUNC microtiter plate, included in the kit, and the total reaction volume was 50 μL. The enzyme control was measured without the test compound, and the enzyme background control was measured without the test compound or Hsp90α. […] All of the controls and the blank contained 10% DMSO, as did all of the samples of the test compounds. All of the samples were analyzed as duplicates. […] The blank value was subtracted from all of the other values, and the fluorescence polarization was determined as:(1) mP = ((III − I⊥)/(III+ I⊥)) × 1000 where III is the intensity of the parallel, and I┴ the intensity of the perpendicular polarized light.

[3] = system: Hsp90, Hsp70; assay: Western blotting of Hsp90 and Hsp70 (heat shock response); format: cell-based; conditions: Western blot, 24 h; four cancer cell lines; 17-AAG 2 μM
Protocol: (§1) The cells in the RIPA buffer were placed on ice for 20 min, and were then sonicated in ice cold water for 5 min. […] Equal amounts of protein were separated by 10% SDS-PAGE, and were then transferred onto a nitrocellulose membrane (cat. no. NBA 083C001EA, Protran) using a wet transfer system (Bio-Rad) or semidry Transferblot Turbo Transfer System (Bio-Rad). After the transfer, the membranes were blocked for 30 min in 5% skimmed milk dissolved in 1× TBST, and then incubated with 1:2000 primary antibodies in 5% BSA in TBST at 4 °C overnight.
(§2) The next day, the membranes were washed three times in TBST for 10 min, and then incubated with secondary antibodies (1:5000) diluted in 5% skimmed milk in TBST for 1 h at RT. […] All of the antigens and molecular weights in kDa are labelled next to the blots on the figures. Uncropped Western blot data are attached as Figure S6.

[4] = system: HIF-1α; assay: Western blotting of HIF-1α in nuclear extracts; format: cell-based; conditions: Western blot of nuclear extracts, 24 h; K-RasG12V-transfected HEK and MDA-MB-231 cells; conglobatin A 5 or 10 μM, 17-AAG 2 μM
Protocol: as §1, §2

[5] = system: Gal3; assay: Western blotting of galectin-3; format: cell-based; conditions: Western blot, 24 h; K-RasG12V-transfected HEK and MDA-MB-231 cells
Protocol: The cells were trypsinized, washed with PBS, and lysed in RIPA buffer (cat no. 89900, ThermoFisher Scientific) containing protease and phosphatase inhibitors (cat. no. A32959, ThermoFisher Scientific) and 1 mM phenylmethylsulfonyl fluoride (PMSF). The cells in the RIPA buffer were placed on ice for 20 min, and were then sonicated in ice cold water for 5 min. The lysates were centrifuged at 4 °C, and their protein was quantified using a BCA kit (cat. no. 23225, ThermoFisher Scientific). Equal amounts of protein were separated by 10% SDS-PAGE, and were then transferred onto a nitrocellulose membrane (cat. no. NBA 083C001EA, Protran) using a wet transfer system (Bio-Rad) or semidry Transferblot Turbo Transfer System (Bio-Rad). After the transfer, the membranes were blocked for 30 min in 5% skimmed milk dissolved in 1× TBST, and then incubated with 1:2000 primary antibodies in 5% BSA in TBST at 4 °C overnight. […]
The next day, the membranes were washed three times in TBST for 10 min, and then incubated with secondary antibodies (1:5000) diluted in 5% skimmed milk in TBST for 1 h at RT. […] The protein bands were detected with a ChemiDoc MP instrument (Bio-Rad) after treatment with an ECL reagent (cat. no. 170-5061, BioRad). […]

[6] = set-up: method as in PMID 24927996; conditions: mice, 900 mg/kg; cited from earlier work

Compound | normalized RLU (FIMM Screening-1) ([1]; DMSO = 1.00) | Average RLU (FIMM Screening-1) ([1]; mean of 3 wells) | competition with FITC-geldanamycin (ATP-pocket binding, polarization signal) ([2]; 20 μM compound) | competition with FITC-geldanamycin (ATP-pocket binding, polarization signal) ([2]; up to 50 μM (12.5, 25, 50 μM)) | induction of Hsp90 or Hsp70 expression (heat shock response) [3] | normalized RLU (FIMM Screening-2, scaffold based) ([1]; DMSO = 1.00) | Average RLU (FIMM Screening-2, scaffold based) ([1]; mean of 3 wells, DMSO 51006) | nuclear levels of HIF-1α [4] | Gal3 levels [5] | acute toxicity [6]
CCOc1ccc(C(=O)c2ccc(O)c(O)c2O)cc1 [×1540, 2,3,4-TRIHYDROXY-4'-ETHOXYBENZOPHENONE] | 0.76 | 37962 RLU | None of these four compounds displaced | did not do so | not inducing |  |  |  |  | 
C/C1=C\[C@H](C)C[C@H](C)[C@H](Cc2cnco2)OC(=O)/C(C)=C/[C@H](C)C[C@H](C)[C@H](Cc2cnco2)OC1=O [conglobatin A, reference compound] | 0.51 | 25349 RLU |  |  |  | 0.49 | 25048 RLU | decreased the nuclear levels of HIF-1α | dose-dependently reduced | well tolerated
N=C(CSS(=O)(=O)O)NCC12CC3CC(CC(C3)C1)C2 [×6506, [({N-[(adamantan-1-yl)methyl]carbamimidoyl}methyl)sulfanyl]sulfonic acid] |  |  | None of these four compounds displaced | did not do so | not inducing |  |  |  |  | 
